Laboratory results taken from US9963463B2, “Urea-substituted indanes as P38 map kinase inhibitors” (TORRENT PHARMACEUTICALS LIMITED, priority 2014, dated 2018).

What follows are compounds tested against T1, purified recombinant human p38 alpha MAPK (Homo sapiens, UniProt Q16539) (assay: Inhibition of p38 alpha MAPK activity, TR-FRET kinase assay). Conditions: Concentration 1 μM.
T1 construct: purchased Millipore, USA
Type: biochemical
Procedure: Inhibition of p38 Alpha MAPK Activity: Time-Resolved Fluorescence Resonance Energy Transfer Kinase Standard Assay (TR-FRET Assay)
Compounds of present invention at various concentrations were premixed with DMSO. The experiment was initiated by mixing 0.5%-1.0% DMSO as vehicle/compounds with purified recombinant human p38 alpha MAPK (Millipore, USA) in the wells and 15 min incubation at room temperature. Thereafter, 30 nM of Biotinylated GST-ATF2 (Activation transcription Factor2) and 100 μM of ATP were added in to the wells containing reaction mixture, followed by reincubation for 60 minutes at RT. Reaction was terminated by addition of 10 mM of EDTA and detection reagent containing anti-phosphotheronine ATF2 antibody (PerkinElmer®, USA) labeled with europium chelate and APC (Allophycocyanin) labeled streptavidin, into the reaction mixture which was further incubated for 60 minutes at room temperature. The degree of phosphorylation of the substrate (GST-ATF2) was measured using Envision multimode reader (PerkinElmer®). Percentage inhibition of p38 kinase activity was calculated by determining ratio of specific europium 665 nm energy transfer signal to reference 615 nm signal.

T1 sequence (Q16539 whole entry): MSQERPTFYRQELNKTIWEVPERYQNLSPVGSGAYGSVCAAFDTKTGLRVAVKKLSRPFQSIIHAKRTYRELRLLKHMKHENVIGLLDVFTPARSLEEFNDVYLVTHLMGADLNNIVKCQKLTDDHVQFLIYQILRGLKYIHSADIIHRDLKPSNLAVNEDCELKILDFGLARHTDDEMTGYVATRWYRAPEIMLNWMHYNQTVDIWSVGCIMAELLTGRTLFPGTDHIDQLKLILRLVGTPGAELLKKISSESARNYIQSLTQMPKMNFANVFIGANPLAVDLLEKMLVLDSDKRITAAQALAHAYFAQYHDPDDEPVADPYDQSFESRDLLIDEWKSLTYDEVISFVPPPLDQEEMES

Compound	P38α Inhibition
CCCSc1ccccc1-c1nnc2n1CCN(CCOc1ccc(NC(=O)Nc3cc(C(C)(C)C)cc(NS(=O)(=O)CC)c3OC)c3c1CCC3)C2 [Compound 50, N-[5-tert-butyl-2-methoxy-3-({[7-(2-{3-[2-(propylsulfanyl)phenyl]-5,6-dihydro[1,2,4]triazolo[4,3-a]pyrazin-7(8H)-yl}ethoxy)-2,3-dihydro-lH-inden-4-yl]carbamoyl}amino)phenyl] ethanesulfonamide]	+++++ (+++++ = Inhibition ≥80% ≥ 100%)

Same assay, conditions: Concentration 1 μM; read-out: P38α Inhibition

Compound	inhibition at 1 µM
CC(C)(C)c1cc(NC(=O)Nc2ccc(OCC(=O)N3CCn4c(nnc4C(F)(F)F)C3)c3c2CCC3)n(-c2ccccc2)n1 [Compound 4, 1-(3-tert-butyl-1-phenyl-1H-pyrazol-5-yl)-3-(7-{2-oxo-2-[3-(trifluoromethyl)-5,6-dihydro[1,2,4]triazolo[4,3-a]pyrazin-7(8H)-yl]ethoxy}-2,3-dihydro-1H-inden-4-yl)urea]	60 to 80%
CCCSc1ccccc1-c1nnc2n1CCN(CCOc1ccc(NC(=O)Nc3cc(C(C)(C)C)cc(NS(C)(=O)=O)c3OC)c3c1CCC3)C2 [Compound 42, N-[5-tert-butyl-2-methoxy-3-({[7-(2-{3-[2-(propylsulfanyl)phenyl]-5,6-dihydro[1,2,4]triazolo[4,3-a]pyrazin-7(8H)-yl}ethoxy)-2,3-dihydro-1H-inden-4-yl]carbamoyl}amino)phenyl]methanesulfonamide]	80 to 100%
CSc1ccccc1-c1nnc2n1CCN(C(=O)COc1ccc(NC(=O)Nc3cc(C(C)(C)C)nn3-c3ccc(C)cc3)c3c1CCC3)C2 [Compound 10, 1-[3-tert-butyl-1-(4-methylphenyl)-1H-pyrazol-5-yl]-3-[7-(2-{3-[2-(methylsulfanyl)phenyl]-5,6-dihydro[1,2,4]triazolo[4,3-a]pyrazin-7(8H)-yl}-2-oxoethoxy)-2,3-dihydro-1H-inden-4-yl]urea]	80 to 100%
COc1ccccc1-c1nnc2n1CCN(C(=O)COc1ccc(NC(=O)Nc3cc(C(C)(C)C)nn3-c3ccc(O)c(Cl)c3)c3c1CCC3)C2 [Compound 8, 1-[3-tert-butyl-1-(3-chloro-4-hydroxyphenyl)-1H-pyrazol-5-yl]-3-(7-{2-[3-(2-methoxyphenyl)-5,6-dihydro[1,2,4]triazolo[4,3-a]pyrazin-7(8H)-yl]-2-oxoethoxy}-2,3-dihydro-1H-inden-4-yl)urea]	80 to 100%
COc1c(NC(=O)Nc2ccc(OCCN3CCn4c(nnc4-c4cc(Cl)ccc4O)C3)c3c2CCC3)cc(C(C)(C)C)cc1NS(C)(=O)=O [Compound 48, N-(5-tert-butyl-3-{[(7-{2-[3-(5-chloro-2-hydroxyphenyl)-5,6-dihydro[1,2,4]triazolo[4,3-a]pyrazin-7(8H)-yl]ethoxy}-2,3-dihydro-1H-inden-4-yl)carbamoyl]amino}-2-methoxyphenyl)methanesulfonamide]	80 to 100%
COc1c(NC(=O)Nc2ccc(OCCN3CCN(CC4CC4)C(=O)C3)c3c2CCC3)cc(C(C)(C)C)cc1NC(=O)C1CC1 [Compound 64, N-(5-tert-butyl-3-{[(7-{2-[4-(cyclopropylmethyl)-3-oxopiperazin-1-yl]ethoxy}-2,3-dihydro-1H-inden-4-yl)carbamoyl]amino}-2-methoxyphenyl)cyclopropanecarboxamide]	20 to 40%
CC(C)(C)c1ccc(-n2nc(C(C)(C)C)cc2NC(=O)Nc2ccc(OCC(=O)N3CCn4c(nnc4C(F)(F)F)C3)c3c2CCC3)cc1 [Compound 2, 1-[3-tert-butyl-1-(4-tert-butylphenyl)-1H-pyrazol-5-yl]-3-(7-{2-oxo-2-[3-(trifluoromethyl)-5,6-dihydro[1,2,4]triazolo[4,3-a]pyrazin-7(8H)-yl]ethoxy}-2,3-dihydro-1H-inden-4-yl)urea]	20 to 40%
Cc1ccc(-n2nc(C(C)(C)C)cc2NC(=O)Nc2ccc(OCC(=O)N3CCn4c(nnc4-c4ccccc4)C3)c3c2CCC3)cc1 [Compound 57, 1-[3-tert-butyl-1-(4-methylphenyl)-1H-pyrazol-5-yl]-3-{7-[2-oxo-2-(3-phenyl-5,6-dihydro[1,2,4]triazolo[4,3-a]pyrazin-7(8H)-yl)ethoxy]-2,3-dihydro-1H-inden-4-yl}urea]	60 to 80%
